How the values were obtained:
TSPO [1] = biological target: T1, TSPO (Rattus norvegicus, UniProt P16257); test: Radioligand displacement of [3H]PK 11195 in C6 glioma cell / tumor lysate; type: binding; design: from tissue; host or cells: C6 glioma tumour and normal brain / other tissues of living rats; conditions: for binding affinity (in words): tumor lysate / C6 cell lysate
Description: Given our focus of targeting TSPO expressed in tumors, affinity assays will be conducted in whole and fractionated tumor lysate.
In this Example Glioma-bearing rats were imaged with [^18F]PBR06 in a microPET system. Dynamic acquisitions were acquired simultaneously upon injection of 70-100 MBq/0.2 mL [^18F]PBR06. Over the course of scanning, arterial blood was collected to derive the input function, with HPLC radiometabolite analysis performed on selected samples for arterial input function correction. Compartmental modeling of the PET data was performed using the corrected arterial input function. Specific tumor cell binding of PBR06 was evaluated by radioligand displacement of [^3H]PK 11195 with PBR06 in vitro and by displacement of [^18F]PBR06 with excess PBR06 in vivo. Immediately following imaging, tumor tissue and adjacent healthy brain were harvested for assay of TSPO protein levels by western blotting and immunohistochemistry.
Radioligand displacement of the high-affinity isoquinoline carboxamide TSPO ligand [^3H]PK 11195 was used to evaluate the specific binding of the non-radioactive analogue PBR06 in C6 glioma cell line homogenates in vitro (FIG. 10). […]

TSPO [2] = biological target: T1, TSPO; test: In vivo PET evaluation of [18F]VUIIS-0005 in C6 glioma; design: from tissue; host or cells: C6 glioma tumour and normal brain / other tissues of living rats
Description: (§1) Dynamic microPET imaging can be performed as in tumor-bearing and non-tumor-bearing rats. […] Dynamic images (120 min) are collected, followed by CT for attenuation correction and cross-platform registration. For displacement studies, ‘cold’ analog (10 mg/kg) are injected via jugular catheter 30 min after radiotracer administration. Prior to PET scanning, tumors are localized in tumor-bearing rats using MRI, including T2-weighted and diffusion-weighted scans. For longitudinal studies, tumor volumes are measured using a three-dimensional, T2-weighted fast spin-echo sequence on a Varian 9.4 T horizontal bore imaging system.

TSPO [3] = biological target: T2, TSPO (Mus musculus, UniProt P50637); test: TSPO-PET with 18F-VUIIS1008 in Lrig1-CreERT2;Apcfl/+ mouse model of colorectal cancer; type: in vivo
T2 construct: from tissue; host or cells: colon tumours (Lrig1-CreERT2;Apcfl/+ mice) and pancreatic tumours (Ptf1a-cre;LSL-KrasG12D;Tgfbr2fl/fl mice) in living mice
Description: All studies were conducted in accordance with federal and institutional guidelines. Lrig1-CreERT2/+mice (35) were crossed to Apcfl/+mice to generate Lrig1-CreERT2/+; Apcfl/+mice. Six to eight week old mice were injected with 2 mg tamoxifen (Sigma Aldrich) intraperitoneally for three consecutive days to induce tumor formation. Mice were imaged approximately 100 days after injection of tamoxifen and then sacrificed
Colonoscopy (KARL STORZ-SCB Endoscope System) was performed monthly beginning two months after tamoxifen induction. Mice are anesthetized and immobilized using 2% isofluorane anesthesia in 100% oxygen at 2 L/min. Tumor formation within a single mouse was tracked over time. Upon visual detection of distal colon tumors mice were designated for PET imaging.
PET imaging was performed using a dedicated small animal PET scanner (Concorde Microsystems Focus 220) as described. Briefly, mice were maintained under 2% isofluorane anesthesia in 100% oxygen at 2 L/min and kept warm via a circulating water heating pad during the PET scan. Animals were administered 7.4-9.3 MBq of [^18F]-VUIIS1008 intravenously and allowed free access to food and water during a 50 minute uptake period and a 20 minute PET acquisition. Scans were reconstructed using OSEM3D/MAP.

TSPO [4] = biological target: T1, TSPO; test: Dynamic microPET of [18F]VUIIS-1008 in C6 glioma-bearing rats, with compartmental modeling and in vivo displacement; design: from tissue; host or cells: C6 glioma tumour and normal brain / other tissues of living rats; conditions: for VT (calculated): mean ± SE; for tracer distribution tumor vs normal brain (in words): C6 glioma
Description: as §1, with “Dynamic images (120 min) are collected, followed by CT for attenuation correction and cross-platform registration.” left out
A 3-compartment, 4-rate constant kinetic model can be used to characterize [^18F]PBR06 pharmacokinetics. […] These rate constants can be used to calculate the total volume of distribution (VT) in tissues of interest. Modeling will be carried out for whole brain (excluding tumor) and tumor by fitting time-activity curves (TACs) of each region.
Before PET imaging with ^18F-VUIIS1008, brain tumors were localized with T2-weighted MRI. […] After the initial spike in radioactivity consistent with tracer injection, ^18F-VUIIS1008 rapidly cleared from the plasma. Imaging-matched brains were processed for staining and immunohistochemistry. Using standard hematoxylin and eosin staining to localize the tumor, the present inventors discovered that TSPO expression was significant higher in tumor than in the adjacent healthy brain.
In order to fully evaluate the novel performance of ^18F-VUIIS1008, we have also determined ^18F-VUIIS 1008 pharmacodynamics with arterial input function.

[5] = 1-tissue model, tumor, mean (SE in next line)

With `COc1ccc(OC)c(CN(C(=O)CF)c2ccccc2Sc2ccccc2)c1` [[^18F]VUIIS-0005] the “binding affinity (in words)” value (TSPO [1]) was “improved binding affinity in tumor lysate compared to PBR06 or DPA-714” and the “in vivo uptake distribution (in words)” value (TSPO [2]) was “primarily confined to tumor tissue, with significantly less normal brain uptake compared to ^18F-PBR06”.
In the case of `CCc1cc(CC)n2nc(-c3ccc(OCCF)cc3)c(CC(=O)N(CC)CC)c2n1` [[^18F]VUIIS-1008], the “tracer uptake in distal colon (in words)” value (TSPO [3]; Lrig1-CreERT2;Apcfl/+ mice with colonoscopy confirmed tumors) is reported as “increased, focal uptake in the distal colon compared to adjacent non-tumor tissue and wild type controls”, the “tracer uptake in colon (in words)” value (TSPO [3]; wild type mice) is reported as “low tracer uptake in the colon” and the “binding affinity (in words)” value (TSPO [1]) is reported as “improved binding affinity in tumor lysate compared to PBR06 or DPA-714”. It also gave a binding affinity (TSPO [1]; whole tumor lysate) of roughly 1 nM, a K1 (TSPO [4]; 1-tissue model, brain, mean) of 0.3161 mL/g/min and a k2 (TSPO [4]; 1-tissue model, brain, mean) of 0.3048 min⁻¹. The “VT (calculated)” value (TSPO [4]; 1-tissue model, brain) was 1.3 ± 0.2, the K1 (TSPO [4]; [5]) was 0.3535 mL/g/min and the k2 (TSPO [4]; [5]) was 0.0964 min⁻¹. The “VT (calculated)” value (TSPO [4]; 1-tissue model, tumor) was 3.6 ± 0.6, the K1 (TSPO [4]; 2-tissue model, brain, mean) was 0.5856 mL/g/min and the k2 (TSPO [4]; 2-tissue model, brain, mean) was 2.0217 min⁻¹. The k3 (TSPO [4]; 2-tissue model, brain, mean) was 0.2903 min⁻¹, the k4 (TSPO [4]; 2-tissue model, brain, mean) was 0.0912 min⁻¹ and the “VT (calculated)” value (TSPO [4]; 2-tissue model, brain) was 1.7 ± 0.4. For the same compound, the K1 (TSPO [4]; 2-tissue model, tumor, mean) was 0.5448 mL/g/min, the k2 (TSPO [4]; 2-tissue model, tumor, mean) was 1.2413 min⁻¹ and the k3 (TSPO [4]; 2-tissue model, tumor, mean) was 0.1300 min⁻¹. The k4 (TSPO [4]; 2-tissue model, tumor, mean) was 0.0234 min⁻¹, the “VT (calculated)” value (TSPO [4]; 2-tissue model, tumor) was 4.6 ± 0.8 and the K1 (TSPO [4]; 3-tissue model, brain, mean) was 0.6925 mL/g/min. It also gave a k2 (TSPO [4]; 3-tissue model, brain, mean) of 3.7619 min⁻¹, a k3 (TSPO [4]; 3-tissue model, brain, mean) of 0.8194 min⁻¹ and a k4 (TSPO [4]; 3-tissue model, brain, mean) of 0.2569 min⁻¹. For the same compound, the k5 (TSPO [4]; 3-tissue model, brain, mean) was 0.5314 min⁻¹, the k6 (TSPO [4]; 3-tissue model, brain, mean) was 0.1748 min⁻¹ and the “VT (calculated)” value (TSPO [4]; 3-tissue model, brain) was 1.4 ± 0.2. The K1 (TSPO [4]; 3-tissue model, tumor, mean) was 0.6449 mL/g/min, the k2 (TSPO [4]; 3-tissue model, tumor, mean) was 2.9459 min⁻¹ and the k3 (TSPO [4]; 3-tissue model, tumor, mean) was 0.4597 min⁻¹. For the same compound, the k4 (TSPO [4]; 3-tissue model, tumor, mean) was 0.1371 min⁻¹, the k5 (TSPO [4]; 3-tissue model, tumor, mean) was 0.2304 min⁻¹ and the “VT (calculated)” value (TSPO [4]; 3-tissue model, tumor) was 6.4 ± 1.8. The k6 (TSPO [4]; 3-tissue model, tumor, mean, listed as [18F]VUIIS1008) was 0.0574 min⁻¹, the “stability in plasma, HPLC radiometabolite assay (in words)” value (TSPO [4]; 90 min dynamic PET scan) was “high stability of this probe in the 90 min dynamic PET scan” and the “tracer distribution tumor vs normal brain (in words)” value (TSPO [4]) was “robust tumor uptake, yet very little normal brain uptake”. For the same compound, the “tracer distribution tumor vs normal brain (in words)” value (TSPO [4]; listed as 18F-VUIIS1008) was “most of the uptake in the brain was localized to the tumor, with only modest accumulation in the adjacent, normal brain”, the “clearance and accumulation compared with 18F-DPA714 (in words)” value (TSPO [4]; glioma-bearing rats) was “a similar clearance and accumulation in brain, while a faster clearance and a slower accumulation in tumor” and the “displacement from the tumor by 'cold' VUIIS-1008 (in words)” value (TSPO [4]; in vivo displacement) was “no detectable displacement from the tumor”. For the same compound, the “increase in tracer levels in plasma on displacement with 'cold' VUIIS-1008” value (TSPO [4]; in vivo displacement) was 25 fold.

Reference: patent US9458161B1, “TSPO ligands for cancer imaging and treatment” (Vanderbilt University, priority 2011, dated 2016)
